One series concerns PC-9 tumor cell. The series can be described thus: CellTiter-Glo (CTG) cell viability assay, PC-9 tumor cell growth inhibition. Particulars: Homo sapiens, PC-9, 72 h, read-out: PC-9 tumor cell growth inhibition IC50.
Series [1] can be described thus: Blood-brain barrier penetration (brain tissue to plasma concentration ratio). Format: in vivo. To be noted: rat, rats, four hours after dosing. On the procedure:
To determine whether the compound was able to cross the blood-brain barrier (BBB), the rats were administered with the test compound. Four hours after dosing, rats were sacrificed, blood and brain tissue were collected and the concentration of the test compound was analyzed. Brain permeation is defined as the ratio of the concentration of the compound in the brain tissue to the concentration in the plasma. P-glycoprotein is the blood-brain barrier efflux protein, […].

A further series has as its system PC-9-luc tumor cells. Put plainly: Efficacy study on intracranial animal model (PC-9-luc). Particulars: Iressa human equivalent dose, 8 mice per group. Format: in vivo. From the text:
The injection was slowly preceded over a one-minute period. Upon completing injection, the needle was retained for another minute. After the needle removal, the hole was sealed with bone wax and the incision was closed. The tumor growth was monitored by image analysis. On Day 10, mice were randomized into 5 groups (8 mice per group) and start the treatments for three weeks.
The tumor growth was monitored by bioiluminense intensity. […] The survival benefits (no death or bodyweight loss less than 18%) treatment with compound X disclosed in table 3.

The next series has as its target P-glycoprotein (Homo sapiens, UniProt P08183). The series can be described thus: P-glycoprotein efflux substrate. Format: in vitro ADME.

These results are taken from patent publication US11168067B2, “Substituted quinazoline compound having blood-brain barrier penetration capability” (WEISHANG (SHANGHAI) BIO-PHARMACEUTICAL CO., LTD., priority 2016, dated 2021).

Each structure is given as a SMILES string.

P-glycoprotein, sequence (P08183 whole entry): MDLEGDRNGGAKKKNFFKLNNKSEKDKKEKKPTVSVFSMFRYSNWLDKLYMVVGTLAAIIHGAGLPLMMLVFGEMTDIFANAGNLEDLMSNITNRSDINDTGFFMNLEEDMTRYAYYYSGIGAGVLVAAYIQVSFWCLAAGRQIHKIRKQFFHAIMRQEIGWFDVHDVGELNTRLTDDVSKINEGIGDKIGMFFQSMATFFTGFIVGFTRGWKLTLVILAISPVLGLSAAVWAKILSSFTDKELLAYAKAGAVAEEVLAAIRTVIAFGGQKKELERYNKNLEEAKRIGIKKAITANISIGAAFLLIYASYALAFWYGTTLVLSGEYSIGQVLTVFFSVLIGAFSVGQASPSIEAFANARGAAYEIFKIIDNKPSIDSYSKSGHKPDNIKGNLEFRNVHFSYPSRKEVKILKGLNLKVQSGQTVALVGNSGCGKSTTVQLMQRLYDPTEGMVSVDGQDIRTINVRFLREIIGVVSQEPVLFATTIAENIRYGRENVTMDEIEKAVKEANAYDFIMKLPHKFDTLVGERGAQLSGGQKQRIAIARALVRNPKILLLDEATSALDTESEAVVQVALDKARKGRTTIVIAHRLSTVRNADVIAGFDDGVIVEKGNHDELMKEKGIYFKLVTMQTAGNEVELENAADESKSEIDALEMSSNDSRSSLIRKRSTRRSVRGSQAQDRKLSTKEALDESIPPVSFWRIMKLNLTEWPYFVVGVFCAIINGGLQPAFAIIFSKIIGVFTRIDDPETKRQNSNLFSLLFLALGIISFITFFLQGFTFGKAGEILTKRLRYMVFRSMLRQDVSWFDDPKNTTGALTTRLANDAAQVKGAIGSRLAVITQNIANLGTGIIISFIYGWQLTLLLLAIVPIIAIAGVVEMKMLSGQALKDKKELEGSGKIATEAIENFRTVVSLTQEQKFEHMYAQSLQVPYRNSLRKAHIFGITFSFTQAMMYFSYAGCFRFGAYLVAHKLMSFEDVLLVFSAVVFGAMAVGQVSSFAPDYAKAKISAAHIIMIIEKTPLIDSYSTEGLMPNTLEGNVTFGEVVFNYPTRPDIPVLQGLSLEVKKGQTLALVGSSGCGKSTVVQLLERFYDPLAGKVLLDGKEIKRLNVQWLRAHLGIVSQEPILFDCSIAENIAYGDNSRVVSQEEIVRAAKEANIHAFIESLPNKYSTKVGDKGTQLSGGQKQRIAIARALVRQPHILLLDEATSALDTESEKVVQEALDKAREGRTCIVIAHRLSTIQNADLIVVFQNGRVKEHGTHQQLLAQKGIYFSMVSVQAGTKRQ

In general, IC50 refers to the midpoint of a concentration-inhibition curve. The term Kp denotes the ratio of the level in a tissue or fluid to that in plasma or blood. Take `COc1cc2ncnc(Nc3ccc(F)c(Cl)c3F)c2cc1O[C@H]1CCN(C2COC2)CC1(F)F` [Compound 25, (S)—N-(3-chloro-2,4-difluorophenyl)-6-((3,3-difluoro-1-(oxetan-3-yl)piperidin-4-yl)oxy)-7-methoxyquinazolin-4-amine]: in the series on PC-9 tumor cell, the IC50 was less than 1 nM. The Kp at 4 h in series [1] is more than 0.3.

As for `[2H]C([2H])([2H])Oc1cc2ncnc(Nc3ccc(F)c(Cl)c3F)c2cc1O[C@@H]1CCN(C2COC2)CC1(F)F` [Compound 27, (R)—N-(3-chloro-2,4-difluorophenyl)-6-((3,3-difluoro-1-(oxetan-3-yl)piperidin-4-yl)oxy)-7-(methoxy-d3)quinazolin-4-amine], the IC50 with PC-9 tumor cell was less than 1 nM. Besides, the Kp at 4 h in series [1] was more than 0.3.

For `[2H]C([2H])([2H])Oc1cc2ncnc(Nc3ccc(F)c(Cl)c3F)c2cc1O[C@H]1CCN(C2COC2)CC1(F)F` [Compound 29, (S)—N-(3-chloro-2,4-difluorophenyl)-6-((3,3-difluoro-1-(oxetan-3-yl)piperidin-4-yl)oxy)-7-(methoxy-d3)quinazolin-4-amine], the IC50 in the series with PC-9 tumor cell was less than 1 nM. The Kp at 4 h in series [1] is more than 0.3.

On to `COc1cc2ncnc(Nc3ccc(F)c(Cl)c3)c2cc1OCCCN1CCOCC1` [Iressa, gefitinib], for which, in the series with PC-9-luc tumor cells (D 20 post tumor implantation), the “survival (no death or bodyweight loss less than 18%), mice at D 20” value is reported as 8. In addition, the “survival, mice at D 24” value in the series with PC-9-luc tumor cells (D 24 post tumor implantation) was found to be 7. The “survival, mice at D 27” value in the series on PC-9-luc tumor cells (D 27 post tumor implantation) was 7. The “survival, mice at D 28” value with PC-9-luc tumor cells (D 28 post tumor implantation) came to 7. Further, the “survival, mice at D 30” value in the series on PC-9-luc tumor cells (D 30 post tumor implantation) is listed as 7. In addition, the “survival, mice at D 31” value in the series on PC-9-luc tumor cells (D 31 post tumor implantation) was found to be 4. On P-glycoprotein, the P-glycoprotein efflux substrate entry is “yes”. In addition, the Kp at 4 h in series [1] is less than 0.05.
